Laboratory results taken from the NIST ThermoML archive (doi:10.1016/j.fluid.2006.10.025).
Several values for one entry are separate records, joined by “and”; a condition that tells them apart may be missing. Equal entries are not always repeated. ± gives the expanded uncertainty stated by the source.

Conditions: 101.33 kPa, Liquid

OCC(F)(F)C(F)(F)C(F)(F)C(F)(F)C(F)(F)C(F)F [1,1,7-trihydrododecafluoroheptan-1-ol]
Conditions | mass density
293.15 K | 1750.1 ± 7.8 kg/m3 and 1750.2 ± 7.8 kg/m3
303.15 K | 1732.7 ± 7.6 kg/m3
313.15 K | 1715 ± 7.4 kg/m3
323.15 K | 1696.9 ± 7.3 kg/m3
333.15 K | 1678.5 ± 7.1 kg/m3
343.15 K | 1659.7 ± 6.9 kg/m3
